The source of these data is patent publication US8372834B2, “Compositions and methods for delivery of anti-cancer agents” (University of Wollongong, priority 2007, dated 2013).

Data set [1] is described as follows: Preliminary stability study of compositions. Type of data set: physicochemical. As to conditions: three weeks, room temperature, protected from light. How it is done: A preliminary assessment of the stability of the compositions was carried out over a period of three weeks. Test samples were manufactured using the FD2 method described above and stored at room temperature. 5-FU is known to be light sensitive and therefore the samples were protected from exposure to light. The samples were monitored at set time intervals for signs of decomposition using a solution of the equivalent concentration of 5-FU in saline (0.9%) as a control. The methods of monitoring the solutions were physical appearance (solid formation etc.), pH and UV-VIS absorbance spectroscopy (266 nm). The 5-FU solution was warmed and sonicated to dissolve any solid 5-FU that had precipitated before pH and absorbance readings.

Data set [2] has as its system COLO-201. Kind of data set: In vitro cytotoxicity, MTS cell proliferation assay. Type of data set: cell-based. As to conditions: COLO-201 cells. How it is done: (§1) After 72 h, cell proliferation was analysed by the MTS assay and normalised to saline control treatments (100% proliferation). ● 5-FU, ▪ 5-FU:FA, ▴ FD45c, ♦ FD50-7Sc, ? FD100HPc. Dashed lines represent the IC50 for each treatment (GraphPad). Values shown are mean±SD (n=4, except for HCT-116 FD50-7Sc and MDA-MB-231 FD100HPc where n=3)
(§2) In vitro cytotoxicity assays were carried out on 5 different carcinoma cell lines (MDA-MB-231, HCT-116, COLO-201, PC-3 and PC-14) using 3 different compositions of the invention (FD45c, FD50-7Sc and FD100HPc). MDA-MB-231 is a breast cancer cell line, HCT-116 and COLO-201 are colon cancer cell lines, PC-3 is a prostate cancer cell line and PC-14 is a non-small cell lung cancer cell line.
(§3) The levels of 5-FU and FA remained constant in each composition. For comparison, assays were also performed using a combination of 5-FU and FA (5-FU:FA), and also 5-FU only. A summary of IC50 values for all cell lines is presented in Table 1 below, and representative dose-response curves used to generate these IC50 values are presented in FIG. 3.

For data set [3], the system named is MDA-MB-231. The description is as above. In kind it is cell-based. As to conditions: Homo sapiens, MDA-MB-231 cells, 72 h, mean IC50 ± SD, at least 3 independent experiments, read-out: IC50 (μM 5-FU). How it is done:
as §1, §2, §3

The subject of data set [4] is HCT-116. The data set is described as above. Type of data set: cell-based. To be noted: Homo sapiens, HCT-116 cells, 72 h, mean IC50 ± SD, at least 3 independent experiments, read-out: IC50 (μM 5-FU). How it is done:
as §1, §2, §3

Data set [5] concerns PC-3. The data set is described as above. To be noted: Homo sapiens, PC-3 cells, 72 h, mean IC50 ± SD, at least 3 independent experiments, read-out: IC50 (μM 5-FU). Type of data set: cell-based. How it is done: as §1, §2, §3
For data set [6], the system named is PC-14. Described as above. Type of data set: cell-based. To be noted: PC-14 cells. How it is done:
as §1, §2, §3

The mark [7] stands for this setting: Homo sapiens, 72 h, MTS assay, mean IC50 ± SD, at least 3 independent experiments, read-out: IC50 (μM 5-FU).

SMILES strings stand for the structures.

In the case of `O=c1[nH]cc(F)c(=O)[nH]1` [Composition 5-FU, 5-fluorouracil], the “change in pH over time” value in data set [1] is “No significant change”. Moreover, in data set [1] (serial dilution), the “change in A266 over time (UV-VIS absorbance, 266 nm)” value is “No overall trend of change”. The “effectiveness compared to 5-FU:FA” value in data set [2] (P=0.0084) and in data set [6] (P=0.0084) was “significantly less effective than 5-FU:FA” each time. In addition, the IC50 (as a rule, the concentration needed to halve the response being measured) was found to be 39.3 ± 13.9 µM in data set [2] (setting [7]); 9.1 ± 1.4 µM in data set [3]; 4 ± 1.3 µM in data set [4]; 1.4 ± 0.8 µM in data set [5]; 33.4 ± 12.2 µM in data set [6] (setting [7]).
